Assay results taken from ChEMBL document CHEMBL1201862, “PubChem BioAssay data set” (2004).
The source made the active and inactive calls.

What was measured:
Coagulation factor XII = biological target: T1, Coagulation factor XII (Homo sapiens, UniProt P00748); assay type: functional;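 further: activated factor XIIa alpha cleaving a fluorogenic AMC peptide substrate; inhibitor potency from loss of enzyme activity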
T1 sequence (P00748 whole entry): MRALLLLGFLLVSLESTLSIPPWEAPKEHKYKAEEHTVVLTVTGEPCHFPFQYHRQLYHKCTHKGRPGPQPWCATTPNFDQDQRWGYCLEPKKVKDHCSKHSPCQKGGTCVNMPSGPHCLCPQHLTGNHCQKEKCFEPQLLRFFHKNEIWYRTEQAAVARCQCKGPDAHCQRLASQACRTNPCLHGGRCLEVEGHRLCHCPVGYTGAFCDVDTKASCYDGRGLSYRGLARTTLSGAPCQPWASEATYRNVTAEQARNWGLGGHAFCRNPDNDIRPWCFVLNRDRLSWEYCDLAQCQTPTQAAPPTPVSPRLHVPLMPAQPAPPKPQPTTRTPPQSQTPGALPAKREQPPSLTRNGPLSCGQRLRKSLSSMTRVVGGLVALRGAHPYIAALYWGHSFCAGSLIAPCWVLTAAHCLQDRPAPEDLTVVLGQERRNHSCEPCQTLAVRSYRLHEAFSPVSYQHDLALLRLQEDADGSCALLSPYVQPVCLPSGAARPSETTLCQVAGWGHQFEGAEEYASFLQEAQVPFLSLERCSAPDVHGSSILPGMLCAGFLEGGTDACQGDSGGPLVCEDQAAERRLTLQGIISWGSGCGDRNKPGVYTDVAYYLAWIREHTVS

H9c2 = test: cells; assay type: functional, cell-based; conditions: Rattus norvegicus, H9c2, Myocardium
[1] = biological target: T2, Voltage-gated N-type calcium channel alpha-1B subunit/Amyloid beta A4 precursor protein-binding family A member 1 (Homo sapiens, UniProt Q00975+Q02410); assay type: protein assay
T2 sequence (Q00975 whole entry): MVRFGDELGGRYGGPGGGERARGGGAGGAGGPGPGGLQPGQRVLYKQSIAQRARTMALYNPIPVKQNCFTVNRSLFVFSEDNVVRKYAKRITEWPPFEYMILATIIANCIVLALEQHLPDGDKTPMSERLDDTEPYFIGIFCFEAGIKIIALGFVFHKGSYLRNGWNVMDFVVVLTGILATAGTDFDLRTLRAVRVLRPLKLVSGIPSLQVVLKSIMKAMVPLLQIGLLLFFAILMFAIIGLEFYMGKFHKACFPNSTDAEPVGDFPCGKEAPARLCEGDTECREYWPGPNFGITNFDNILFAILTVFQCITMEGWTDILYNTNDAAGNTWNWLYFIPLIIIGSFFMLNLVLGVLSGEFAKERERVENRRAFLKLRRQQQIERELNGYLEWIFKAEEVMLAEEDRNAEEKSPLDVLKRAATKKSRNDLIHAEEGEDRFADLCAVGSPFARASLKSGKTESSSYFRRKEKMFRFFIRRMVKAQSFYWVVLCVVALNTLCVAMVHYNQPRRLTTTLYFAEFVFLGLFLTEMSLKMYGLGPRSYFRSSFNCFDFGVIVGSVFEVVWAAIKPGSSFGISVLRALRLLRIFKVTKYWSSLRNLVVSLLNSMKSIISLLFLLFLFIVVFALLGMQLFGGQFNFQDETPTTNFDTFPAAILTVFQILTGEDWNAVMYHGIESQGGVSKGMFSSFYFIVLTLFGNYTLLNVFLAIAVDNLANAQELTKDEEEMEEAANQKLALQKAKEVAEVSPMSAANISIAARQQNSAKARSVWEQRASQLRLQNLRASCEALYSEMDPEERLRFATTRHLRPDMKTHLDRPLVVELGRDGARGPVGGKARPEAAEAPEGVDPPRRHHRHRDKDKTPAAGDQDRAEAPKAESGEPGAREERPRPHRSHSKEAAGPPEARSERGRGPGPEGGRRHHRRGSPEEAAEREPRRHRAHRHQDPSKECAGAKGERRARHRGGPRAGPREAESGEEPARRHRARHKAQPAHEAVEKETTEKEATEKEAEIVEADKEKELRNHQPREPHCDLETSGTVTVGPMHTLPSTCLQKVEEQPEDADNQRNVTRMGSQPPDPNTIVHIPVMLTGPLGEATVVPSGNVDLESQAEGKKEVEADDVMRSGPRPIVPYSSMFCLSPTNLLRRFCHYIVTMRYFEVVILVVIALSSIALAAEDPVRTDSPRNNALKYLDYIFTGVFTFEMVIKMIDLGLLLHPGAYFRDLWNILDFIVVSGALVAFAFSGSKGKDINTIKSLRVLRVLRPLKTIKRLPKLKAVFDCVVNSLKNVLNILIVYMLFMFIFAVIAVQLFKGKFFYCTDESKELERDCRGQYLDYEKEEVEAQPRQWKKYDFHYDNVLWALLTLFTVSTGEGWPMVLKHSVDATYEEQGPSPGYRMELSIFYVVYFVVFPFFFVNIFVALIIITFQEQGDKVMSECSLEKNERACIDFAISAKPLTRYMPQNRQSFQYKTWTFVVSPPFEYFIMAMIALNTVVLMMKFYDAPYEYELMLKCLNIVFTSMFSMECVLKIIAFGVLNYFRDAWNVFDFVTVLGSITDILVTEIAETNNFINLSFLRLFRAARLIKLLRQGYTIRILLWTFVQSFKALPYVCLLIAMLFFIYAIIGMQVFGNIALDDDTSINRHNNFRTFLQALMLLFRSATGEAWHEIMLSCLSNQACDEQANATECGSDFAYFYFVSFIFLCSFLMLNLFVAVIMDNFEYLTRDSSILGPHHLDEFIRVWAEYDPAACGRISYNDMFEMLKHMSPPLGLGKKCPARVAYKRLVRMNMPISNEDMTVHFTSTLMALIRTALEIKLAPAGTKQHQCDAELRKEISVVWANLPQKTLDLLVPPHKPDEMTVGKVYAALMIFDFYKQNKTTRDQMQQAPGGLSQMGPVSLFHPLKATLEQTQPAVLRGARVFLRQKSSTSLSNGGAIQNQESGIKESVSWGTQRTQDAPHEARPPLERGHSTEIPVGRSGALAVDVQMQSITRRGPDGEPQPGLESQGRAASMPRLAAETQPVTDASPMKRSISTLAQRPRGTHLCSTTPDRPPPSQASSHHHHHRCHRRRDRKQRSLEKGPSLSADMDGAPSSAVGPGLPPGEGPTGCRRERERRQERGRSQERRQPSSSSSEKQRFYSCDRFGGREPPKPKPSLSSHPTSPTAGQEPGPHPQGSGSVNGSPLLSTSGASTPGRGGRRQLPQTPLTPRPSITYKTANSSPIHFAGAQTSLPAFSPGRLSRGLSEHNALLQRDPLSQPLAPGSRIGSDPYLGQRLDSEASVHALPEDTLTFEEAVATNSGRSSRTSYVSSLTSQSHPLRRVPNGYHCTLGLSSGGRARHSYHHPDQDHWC
T2 sequence (Q02410 whole entry): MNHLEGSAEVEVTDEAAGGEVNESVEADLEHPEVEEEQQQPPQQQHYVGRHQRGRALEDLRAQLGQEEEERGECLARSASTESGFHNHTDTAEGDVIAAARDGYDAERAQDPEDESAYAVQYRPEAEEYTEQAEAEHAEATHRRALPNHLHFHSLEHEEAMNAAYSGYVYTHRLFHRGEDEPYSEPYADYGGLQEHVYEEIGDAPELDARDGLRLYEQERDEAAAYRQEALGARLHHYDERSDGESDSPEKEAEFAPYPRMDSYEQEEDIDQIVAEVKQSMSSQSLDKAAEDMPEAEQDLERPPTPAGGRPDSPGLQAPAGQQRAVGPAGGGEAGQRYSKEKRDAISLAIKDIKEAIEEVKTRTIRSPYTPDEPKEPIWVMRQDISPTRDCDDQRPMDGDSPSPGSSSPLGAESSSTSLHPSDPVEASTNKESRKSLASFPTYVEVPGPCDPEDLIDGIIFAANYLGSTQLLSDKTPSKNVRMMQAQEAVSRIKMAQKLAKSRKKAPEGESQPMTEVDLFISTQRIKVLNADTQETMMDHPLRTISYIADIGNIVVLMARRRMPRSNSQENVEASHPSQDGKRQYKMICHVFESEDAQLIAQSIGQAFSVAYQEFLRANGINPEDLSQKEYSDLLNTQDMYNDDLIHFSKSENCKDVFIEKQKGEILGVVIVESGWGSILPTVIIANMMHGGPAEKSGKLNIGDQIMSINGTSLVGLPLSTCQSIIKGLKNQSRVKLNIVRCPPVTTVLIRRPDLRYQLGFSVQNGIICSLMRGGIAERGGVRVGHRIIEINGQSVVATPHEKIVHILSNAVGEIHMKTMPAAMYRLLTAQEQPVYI

[2] = biological target: Induced myeloid leukemia cell differentiation protein Mcl-1 (Homo sapiens, UniProt Q07820); assay type: functional
Induced myeloid leukemia cell differentiation protein Mcl-1, sequence (Q07820 whole entry, the tested form may be a part): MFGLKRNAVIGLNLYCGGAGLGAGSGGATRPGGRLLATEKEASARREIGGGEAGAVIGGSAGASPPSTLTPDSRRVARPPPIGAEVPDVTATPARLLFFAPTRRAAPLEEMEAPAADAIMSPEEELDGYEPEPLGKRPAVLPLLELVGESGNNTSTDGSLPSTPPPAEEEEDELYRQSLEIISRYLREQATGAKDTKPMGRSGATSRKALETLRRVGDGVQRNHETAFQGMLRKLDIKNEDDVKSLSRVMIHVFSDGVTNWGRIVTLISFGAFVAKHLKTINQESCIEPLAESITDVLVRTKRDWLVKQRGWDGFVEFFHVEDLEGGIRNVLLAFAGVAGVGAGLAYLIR

[3] = biological target: T3, Carboxy-terminal domain RNA polymerase II polypeptide A small phosphatase 1 (Homo sapiens, UniProt Q9GZU7); test: CTDSP1 inhibitors, concentration-response, biochemical, absorbance readout, ultra-high-throughput screen actives (AID 540297); assay type: functional
T3 sequence (Q9GZU7 whole entry): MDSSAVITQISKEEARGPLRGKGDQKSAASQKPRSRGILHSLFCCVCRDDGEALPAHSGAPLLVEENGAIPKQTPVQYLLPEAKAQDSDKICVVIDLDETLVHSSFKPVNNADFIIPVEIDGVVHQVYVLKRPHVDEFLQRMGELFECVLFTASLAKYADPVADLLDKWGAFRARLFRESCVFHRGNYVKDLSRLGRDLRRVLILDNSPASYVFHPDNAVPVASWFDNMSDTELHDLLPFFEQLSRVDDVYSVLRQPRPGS

[4] = biological target: T2, Voltage-gated N-type calcium channel alpha-1B subunit/Amyloid beta A4 precursor protein-binding family A member 1; assay type: protein assay; remark: listed apart in the source
Large T antigen = Large T antigen (Simian virus 40, UniProt P03070); assay type: functional, Betapolyomavirus macacae;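 further: Confirmatory-stage PubChem screen for compounds that inhibit SV40 T antigen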
Large T antigen, sequence (P03070 whole entry): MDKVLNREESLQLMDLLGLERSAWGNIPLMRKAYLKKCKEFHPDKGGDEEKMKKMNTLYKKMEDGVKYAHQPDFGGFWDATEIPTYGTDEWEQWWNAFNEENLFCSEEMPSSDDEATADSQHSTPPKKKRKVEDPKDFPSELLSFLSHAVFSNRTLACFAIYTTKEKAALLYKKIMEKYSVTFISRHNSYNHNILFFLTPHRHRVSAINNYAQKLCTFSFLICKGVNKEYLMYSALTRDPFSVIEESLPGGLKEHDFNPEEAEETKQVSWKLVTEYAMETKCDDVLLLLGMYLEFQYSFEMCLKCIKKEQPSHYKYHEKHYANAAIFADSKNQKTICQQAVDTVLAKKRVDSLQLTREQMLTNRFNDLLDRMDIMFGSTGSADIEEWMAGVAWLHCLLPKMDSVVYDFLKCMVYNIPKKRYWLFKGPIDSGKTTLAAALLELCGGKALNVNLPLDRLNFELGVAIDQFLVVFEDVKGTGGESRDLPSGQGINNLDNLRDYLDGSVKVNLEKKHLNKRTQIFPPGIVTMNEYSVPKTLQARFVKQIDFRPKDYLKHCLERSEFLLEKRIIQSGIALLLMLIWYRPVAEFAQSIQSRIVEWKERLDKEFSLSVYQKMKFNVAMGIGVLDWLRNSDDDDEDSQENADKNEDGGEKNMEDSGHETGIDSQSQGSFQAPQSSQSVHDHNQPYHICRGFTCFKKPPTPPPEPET

[5] = biological target: T4, Microphthalmia-associated transcription factor (Homo sapiens, UniProt O75030); test: reducers of TRPM1 reporter luminescence, concentration series – cell-based, SK-MEL-5, cherry-picked, set 3, MITF inhibitor project, dose response (AID 493073); assay type: functional;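 further: SK-MEL-5 melanoma cells with luciferase driven by the MITF target TRPM1 promoter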
T4 sequence (O75030 whole entry): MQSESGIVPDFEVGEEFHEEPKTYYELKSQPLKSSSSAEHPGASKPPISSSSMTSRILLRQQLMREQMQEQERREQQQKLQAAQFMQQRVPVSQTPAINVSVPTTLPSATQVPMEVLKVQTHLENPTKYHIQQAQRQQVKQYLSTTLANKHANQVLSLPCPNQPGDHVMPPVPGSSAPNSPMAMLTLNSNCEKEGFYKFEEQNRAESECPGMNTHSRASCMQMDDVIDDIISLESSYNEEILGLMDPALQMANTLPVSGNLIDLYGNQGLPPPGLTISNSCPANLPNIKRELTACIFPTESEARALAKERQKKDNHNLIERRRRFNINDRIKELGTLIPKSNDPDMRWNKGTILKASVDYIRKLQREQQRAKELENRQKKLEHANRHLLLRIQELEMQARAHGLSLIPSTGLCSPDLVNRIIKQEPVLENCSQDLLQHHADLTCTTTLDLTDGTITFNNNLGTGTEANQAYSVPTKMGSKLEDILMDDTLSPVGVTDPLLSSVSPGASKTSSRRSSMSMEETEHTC

ORF 73 = biological target: T5, ORF 73 (Human herpesvirus 8, UniProt O40947); test: KSHV LANA DNA-binding disruption – biochemical, fluorescence polarization, cherry-picked samples, dose response (AID 504725); design: species or system Human gammaherpesvirus 8;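 further: fluorescence polarization of a labeled DNA duplex reporting LANA DNA binding; potency is for inhibitors that block LANA binding to the DNA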
T5 sequence (O40947 whole entry): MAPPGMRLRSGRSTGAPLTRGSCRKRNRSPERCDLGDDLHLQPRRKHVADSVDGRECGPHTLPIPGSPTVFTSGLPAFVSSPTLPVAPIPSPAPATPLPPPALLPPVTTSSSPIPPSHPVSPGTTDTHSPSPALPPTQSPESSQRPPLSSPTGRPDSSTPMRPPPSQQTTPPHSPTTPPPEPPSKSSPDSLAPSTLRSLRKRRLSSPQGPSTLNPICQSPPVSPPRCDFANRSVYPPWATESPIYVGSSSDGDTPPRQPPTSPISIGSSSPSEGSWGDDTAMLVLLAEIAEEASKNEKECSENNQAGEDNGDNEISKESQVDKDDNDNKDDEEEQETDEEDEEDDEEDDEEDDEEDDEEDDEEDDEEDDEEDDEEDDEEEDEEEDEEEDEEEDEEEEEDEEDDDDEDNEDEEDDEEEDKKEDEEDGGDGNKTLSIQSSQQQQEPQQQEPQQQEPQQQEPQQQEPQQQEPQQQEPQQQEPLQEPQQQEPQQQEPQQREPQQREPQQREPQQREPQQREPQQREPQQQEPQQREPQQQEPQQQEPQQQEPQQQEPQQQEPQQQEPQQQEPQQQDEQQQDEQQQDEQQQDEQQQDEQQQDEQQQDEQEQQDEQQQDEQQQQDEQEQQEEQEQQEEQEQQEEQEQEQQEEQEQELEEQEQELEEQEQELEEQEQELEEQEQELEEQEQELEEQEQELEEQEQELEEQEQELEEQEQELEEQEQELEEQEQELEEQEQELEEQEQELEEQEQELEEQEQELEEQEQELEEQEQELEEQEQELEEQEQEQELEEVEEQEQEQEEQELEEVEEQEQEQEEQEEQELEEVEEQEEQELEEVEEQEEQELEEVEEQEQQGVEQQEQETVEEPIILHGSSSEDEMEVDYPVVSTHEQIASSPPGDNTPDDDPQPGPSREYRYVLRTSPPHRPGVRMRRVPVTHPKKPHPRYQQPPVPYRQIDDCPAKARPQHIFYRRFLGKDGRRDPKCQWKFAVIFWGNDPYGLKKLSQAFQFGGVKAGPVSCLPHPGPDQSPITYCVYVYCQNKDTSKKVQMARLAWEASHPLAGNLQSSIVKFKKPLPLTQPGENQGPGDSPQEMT

[6] = viability loss in HeLa cells – cytotoxicity control for MgcRacGAP inhibitor project, dose response (AID 624300); assay type: functional
[7] = biological target: T6, Rac GTPase-activating protein 1 (Homo sapiens, UniProt Q9H0H5); test: blockers of MgcRacGAP-driven Rac1 GTP hydrolysis – biochemical, ADP Hunter fluorescence, primary and confirmatory, confirmation (AID 624330); assay type: functional
T6 sequence (Q9H0H5 whole entry): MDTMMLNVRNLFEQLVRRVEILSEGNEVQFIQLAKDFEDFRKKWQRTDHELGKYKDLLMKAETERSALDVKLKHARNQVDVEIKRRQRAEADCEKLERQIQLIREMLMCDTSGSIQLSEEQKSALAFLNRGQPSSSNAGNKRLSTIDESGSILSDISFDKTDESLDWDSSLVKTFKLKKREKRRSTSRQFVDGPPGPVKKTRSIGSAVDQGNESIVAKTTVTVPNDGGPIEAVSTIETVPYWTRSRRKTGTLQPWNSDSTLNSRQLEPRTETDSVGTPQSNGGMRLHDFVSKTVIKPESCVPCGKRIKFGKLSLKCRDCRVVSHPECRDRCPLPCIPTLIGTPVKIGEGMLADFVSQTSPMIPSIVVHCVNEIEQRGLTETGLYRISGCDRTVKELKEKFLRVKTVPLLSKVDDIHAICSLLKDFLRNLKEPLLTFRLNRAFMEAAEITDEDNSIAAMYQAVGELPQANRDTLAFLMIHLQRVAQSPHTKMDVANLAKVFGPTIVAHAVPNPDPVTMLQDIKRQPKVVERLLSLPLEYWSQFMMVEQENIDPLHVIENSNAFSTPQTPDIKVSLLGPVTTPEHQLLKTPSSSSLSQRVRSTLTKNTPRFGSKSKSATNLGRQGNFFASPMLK

[8] = HEK-293T viability loss, compound-treated – cell-based, uHTS hits, cytotoxicity control for B/T-cell NF-kB inhibitor project, dose response (AID 489019); assay type: functional;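 further: IC50 reflects cytotoxicity as loss of cell viability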
[9] = alpha-synuclein stem-loop luciferase translation blockers – H4 neuroglioma cells, luminescence, confirmation (AID 1988); assay type: functional, cell-based
[10] = luciferase reporter signal suppression in cells – H4 neuroglioma cells, luminescence, dose response (AID 1990); assay type: functional, cell-based
[11] = Luminescence Cell-Based Dose Response HTS to Identify Inhibitors of 5'UTR Stem-Loop Driven Prion Protein mRNA Translation in H4 Neuroglioblastoma Cells. [Related pubchem assays: 1827 (Project Summary), 1813 (Primary HTS)]; assay type: functional
Jurkat = test: blockers of NF-kB activation in T cells – Jurkat, luciferase reporter, luminescence, B- and T-cell, dose response (AID 489004); assay type: functional, cell-based; conditions: Homo sapiens;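 further: NF-kB luciferase reporter Jurkat cells stimulated with PMA plus ionomycin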
cells = assay type: functional, cell-based; conditions: HEK-CNG
[12] = loss of viability in HepG2 cells – cell-based, CellTiter-Glo, cherry-picked, cytotoxicity control for Shn3 inhibitor project, dose response (AID 624134); assay type: functional
[13] = reduction of Shn3 3'UTR-driven luciferase in osteoblasts – cell-based, Clone20 osteoblasts, firefly luciferase, cherry-picked, dose response (AID 624132); assay type: functional;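 further: firefly luciferase luminescence from reporter carrying the Shn3 3'UTR in osteoblasts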
[14] = decrease of insulin promoter-GFP reporter – imaging, high-content screening, mouse beta cells (AID 1628); assay type: functional; conditions: MIN6
[15] = MIN6 cell viability loss – mouse insulinoma, cytotoxicity control, dose response (AID 2122); assay type: functional;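 further: confirmatory high-throughput counterscreen run to flag cytotoxic compounds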
Galanin receptor type 3 = biological target: T7, Galanin receptor type 3 (Homo sapiens, UniProt O60755); test: Fluorescence-based cell-based primary high throughput dose response assay to identify antagonists of the Galanin Receptor 3 (GalR3).; assay type: functional
T7 sequence (O60755 whole entry): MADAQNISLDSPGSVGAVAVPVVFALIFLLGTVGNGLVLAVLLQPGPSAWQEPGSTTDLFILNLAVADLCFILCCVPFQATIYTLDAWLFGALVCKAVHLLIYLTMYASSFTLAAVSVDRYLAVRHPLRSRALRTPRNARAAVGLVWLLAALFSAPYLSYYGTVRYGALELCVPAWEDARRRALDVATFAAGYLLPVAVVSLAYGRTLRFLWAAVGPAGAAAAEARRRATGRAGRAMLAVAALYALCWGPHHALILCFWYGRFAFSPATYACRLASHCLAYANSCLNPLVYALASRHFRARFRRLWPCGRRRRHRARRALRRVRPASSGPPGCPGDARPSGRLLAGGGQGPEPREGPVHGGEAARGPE

[16] = non-specific 3'UTR reporter inhibition in Clone20-Shn3RL – cell-based, Renilla luciferase, cherry-picked, counter-screen for Shn3 inhibitor project, dose response (AID 624133); assay type: functional
SUMO-activating enzyme = SUMO-activating enzyme (Homo sapiens, UniProt Q9UBT2); test: blockers of UBC9-mediated SUMO conjugation – biochemical, AlphaScreen, SUMOylation inhibitor project, confirmation (AID 2018); assay type: functional

## COc1cccc(OC)c1-c1nn2c(-c3ccco3)nnc2s1
Coagulation factor XII
  IC50: > 50 µM (inactive)
H9c2
  IC50: > 79 µM (inactive)

## O=C(O)CCn1cc(C=C2C(=O)NC(=S)NC2=O)c(-c2cc3ccccc3oc2=O)n1
[1]
  IC50: 17.8 µM (active)
[2]
  IC50: 3.42 µM (active)
[3]
  IC50: 13 µM (active)
[4]
  IC50: 6.27 µM (active)

## CC(C)C(OC(=O)c1cccs1)C(=O)NCc1ccc2c(c1)OCO2 (stereo unspecified)
Coagulation factor XII
  IC50: > 50 µM (inactive)

## O=C1NC(=O)C(=Cc2ccc(-c3cc(Cl)ccc3[N+](=O)[O-])o2)C(=O)N1
Large T antigen
  IC50: 48.3 µM (active)
[1]
  IC50: 4.58 µM (active)
[4]
  IC50: > 50 µM (inactive)
[5]
  AC50: 17.2 µM (active)

## CCOC(=O)C1Nc2ccccc2C2C(O)C(O)CC12 (stereo unspecified)
ORF 73
  AC50: > 350 µM (inactive)

## COc1ccc(CNc2ncc(-c3ccc(F)cc3)n2C)c2ccccc12
[6]
  CC50: 100 µM (active)
[7]
  IC50: 62.6 µM (active)
[8]
  IC50: > 80 µM (inactive)
[9]
  EC50: 1.22 µM (active)
[10]
  EC50: 10 µM (active)
[11]
  EC50: 6.58 µM (active)
Jurkat
  IC50: 1.97 µM (active)

## CC(=O)c1cn(Cc2ccccc2C#N)c2ccccc12
cells
  EC50: > 29.9 µM (inactive)
[12]
  AC50: 2.2 µM (active)
[13]
  AC50: 0.527 µM (active)
[8]
  IC50: > 80 µM (inactive)
[14]
  IC50: 1.01 µM (active)
Jurkat
  IC50: 30 µM (inactive)
[15]
  IC50: 0.64 µM (active)
Galanin receptor type 3
  IC50: 3.07 µM (active)
[16]
  AC50: 4.28 µM (active)

## CC(C)c1ccc(NC(=O)c2ccc(Br)o2)cc1
Coagulation factor XII
  IC50: > 50 µM (inactive)

## Nc1ccc2nc(-c3ccc(-c4nc5ccc(N)cc5[nH]4)cc3)[nH]c2c1
[1]
  IC50: 5.62 µM (active)
SUMO-activating enzyme
  IC50: > 100 µM (inactive)
[4]
  IC50: > 50 µM (inactive)

## Cc1cc2c(c(=O)n1C)C(Cc1ccccc1)C(C#N)=C(N)O2 (stereo unspecified)
Coagulation factor XII
  IC50: > 50 µM (inactive)

## O=C(N/N=C/c1coc2ccccc2c1=O)c1cc(O)cc(O)c1
[1]
  IC50: 7.54 µM (active)
[4]
  IC50: > 50 µM (inactive)

## O=C(CSc1nnc(COc2ccccc2)n1Cc1ccco1)c1ccc(F)cc1
Coagulation factor XII
  IC50: > 50 µM (inactive)
